Results taken from US5593970A, “Heterocyclic anthracycline analogs” (priority 1994, dated 1997).

System: DMS 273
Experiment: NCI sulforhodamine B assay
Format: cell-based, human

## COC(=O)C1CC2=C(C(=O)c3c(cc4ccccc4c3O)C2=O)C(O[C@H]2C[C@H](NC(=O)C(F)(F)F)[C@H](O)[C@H](C)O2)O1 (mixture of isomers) [BCH-242, (1'S,1R,3S) and (1'S, 1S,3R)-Methyl[11-hydroxy-1-2',3',6'-trideoxy-3-trifluroacetamido-L-lyxohexopyranose)-5,12-dioxo-3,4,5,12-tetrahydroanthraceno[2,3-c]pyran-3-yl]formate]
DMS 273, 2880 min
  Log10 LC50: -5.31 log molar
Homo sapiens, DMS-273, 48 h, read-out: Log10 LC50, DMS 273 (converted)
  CC50: 9.77 µM
